Test results: ChEMBL document CHEMBL4507268 (2021)

Assays:
Conditions in all cases: Compound concentration 1.0 uM
[1] = target: Interferon-induced, double-stranded RNA-activated protein kinase (Homo sapiens) (UniProt P19525)
[2] = target: Mitogen-activated protein kinase kinase kinase kinase 5 (Homo sapiens) (UniProt Q9Y4K4)
[3] = target: Fibroblast growth factor receptor 1 (Homo sapiens) (UniProt P11362)
[4] = target: T1, Serine/threonine-protein kinase MAK (Homo sapiens) (UniProt P20794)
T1 sequence (whole entry): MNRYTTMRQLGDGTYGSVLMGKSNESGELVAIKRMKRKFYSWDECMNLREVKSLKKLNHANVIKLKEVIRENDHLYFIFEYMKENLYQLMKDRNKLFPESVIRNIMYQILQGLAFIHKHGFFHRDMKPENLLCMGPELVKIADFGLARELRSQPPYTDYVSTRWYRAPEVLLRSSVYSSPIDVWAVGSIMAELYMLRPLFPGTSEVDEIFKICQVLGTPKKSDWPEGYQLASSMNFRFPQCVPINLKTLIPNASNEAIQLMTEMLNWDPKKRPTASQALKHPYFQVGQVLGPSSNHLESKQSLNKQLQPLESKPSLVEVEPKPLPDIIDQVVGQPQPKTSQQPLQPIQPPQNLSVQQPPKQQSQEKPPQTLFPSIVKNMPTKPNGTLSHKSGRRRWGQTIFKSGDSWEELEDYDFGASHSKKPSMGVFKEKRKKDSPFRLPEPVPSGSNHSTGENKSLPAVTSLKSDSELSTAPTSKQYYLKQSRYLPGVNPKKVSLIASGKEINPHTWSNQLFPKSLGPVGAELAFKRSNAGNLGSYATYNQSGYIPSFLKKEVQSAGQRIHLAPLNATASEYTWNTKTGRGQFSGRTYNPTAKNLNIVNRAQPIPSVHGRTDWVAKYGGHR

[5] = target: Misshapen-like kinase 1 (Homo sapiens) (UniProt Q8N4C8)
Chain of Misshapen-like kinase 1 (Homo sapiens) (Q8N4C8 whole entry, looked up): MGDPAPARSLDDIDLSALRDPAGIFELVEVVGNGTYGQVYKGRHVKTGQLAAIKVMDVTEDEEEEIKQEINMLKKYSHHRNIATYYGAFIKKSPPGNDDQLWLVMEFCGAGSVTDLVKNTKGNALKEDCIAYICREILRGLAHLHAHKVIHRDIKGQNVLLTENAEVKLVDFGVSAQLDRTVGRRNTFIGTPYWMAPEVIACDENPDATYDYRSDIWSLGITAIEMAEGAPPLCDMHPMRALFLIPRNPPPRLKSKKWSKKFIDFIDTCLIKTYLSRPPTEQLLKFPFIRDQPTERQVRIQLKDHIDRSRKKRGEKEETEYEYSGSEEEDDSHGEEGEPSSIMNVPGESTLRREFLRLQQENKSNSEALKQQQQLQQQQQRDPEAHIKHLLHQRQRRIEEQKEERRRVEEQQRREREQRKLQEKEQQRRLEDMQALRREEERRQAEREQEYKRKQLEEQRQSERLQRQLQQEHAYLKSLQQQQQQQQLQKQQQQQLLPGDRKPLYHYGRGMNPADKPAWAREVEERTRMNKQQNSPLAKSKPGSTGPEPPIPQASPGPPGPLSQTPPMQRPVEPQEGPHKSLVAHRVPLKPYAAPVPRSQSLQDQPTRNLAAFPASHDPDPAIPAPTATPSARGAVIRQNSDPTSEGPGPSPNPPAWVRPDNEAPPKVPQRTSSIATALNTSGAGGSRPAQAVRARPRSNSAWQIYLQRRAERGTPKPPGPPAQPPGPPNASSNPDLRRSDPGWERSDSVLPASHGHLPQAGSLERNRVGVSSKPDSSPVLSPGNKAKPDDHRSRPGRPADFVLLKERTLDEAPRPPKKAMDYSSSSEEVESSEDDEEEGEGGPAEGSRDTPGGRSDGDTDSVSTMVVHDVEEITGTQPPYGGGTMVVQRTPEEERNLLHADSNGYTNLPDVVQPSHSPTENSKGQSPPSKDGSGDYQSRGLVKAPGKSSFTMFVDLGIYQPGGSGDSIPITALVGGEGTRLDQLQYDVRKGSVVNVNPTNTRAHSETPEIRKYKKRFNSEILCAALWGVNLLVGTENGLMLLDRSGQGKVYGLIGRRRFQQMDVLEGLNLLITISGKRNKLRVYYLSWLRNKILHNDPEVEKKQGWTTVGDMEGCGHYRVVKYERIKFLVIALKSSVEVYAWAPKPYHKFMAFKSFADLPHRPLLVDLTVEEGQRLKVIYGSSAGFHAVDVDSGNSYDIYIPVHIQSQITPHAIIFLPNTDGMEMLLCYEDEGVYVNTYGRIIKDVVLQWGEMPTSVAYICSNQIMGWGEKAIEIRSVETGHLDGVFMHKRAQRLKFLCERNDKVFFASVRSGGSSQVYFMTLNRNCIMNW

[6] = target: T2, Serine/threonine-protein kinase D3 (Homo sapiens) (UniProt O94806)
T2 sequence (whole entry): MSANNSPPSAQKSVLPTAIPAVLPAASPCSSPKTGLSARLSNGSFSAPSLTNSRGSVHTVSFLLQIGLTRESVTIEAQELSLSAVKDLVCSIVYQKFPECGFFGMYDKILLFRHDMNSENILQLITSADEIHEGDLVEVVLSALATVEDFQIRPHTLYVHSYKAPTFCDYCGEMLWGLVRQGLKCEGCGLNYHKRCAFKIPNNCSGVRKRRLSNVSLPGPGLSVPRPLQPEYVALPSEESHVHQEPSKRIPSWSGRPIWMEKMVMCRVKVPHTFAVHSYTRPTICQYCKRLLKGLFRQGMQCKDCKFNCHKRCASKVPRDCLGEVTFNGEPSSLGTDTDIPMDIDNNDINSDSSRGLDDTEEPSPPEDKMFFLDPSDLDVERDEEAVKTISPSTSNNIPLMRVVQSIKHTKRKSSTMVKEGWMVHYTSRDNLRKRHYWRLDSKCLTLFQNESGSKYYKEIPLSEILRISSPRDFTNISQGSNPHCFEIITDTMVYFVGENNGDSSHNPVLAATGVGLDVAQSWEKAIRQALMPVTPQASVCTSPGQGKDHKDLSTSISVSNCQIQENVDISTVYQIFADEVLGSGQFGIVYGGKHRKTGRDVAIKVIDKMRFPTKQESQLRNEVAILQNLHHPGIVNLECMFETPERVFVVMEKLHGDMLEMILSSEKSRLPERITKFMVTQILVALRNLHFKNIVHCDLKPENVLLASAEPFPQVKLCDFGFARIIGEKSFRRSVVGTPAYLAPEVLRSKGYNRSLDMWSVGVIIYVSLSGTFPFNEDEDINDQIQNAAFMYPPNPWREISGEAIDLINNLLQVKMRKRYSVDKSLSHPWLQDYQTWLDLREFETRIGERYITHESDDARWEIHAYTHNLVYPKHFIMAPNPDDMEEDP

[7] = target: T3, Serine/threonine-protein kinase TAO1 (Homo sapiens) (UniProt Q7L7X3)
T3 sequence (whole entry): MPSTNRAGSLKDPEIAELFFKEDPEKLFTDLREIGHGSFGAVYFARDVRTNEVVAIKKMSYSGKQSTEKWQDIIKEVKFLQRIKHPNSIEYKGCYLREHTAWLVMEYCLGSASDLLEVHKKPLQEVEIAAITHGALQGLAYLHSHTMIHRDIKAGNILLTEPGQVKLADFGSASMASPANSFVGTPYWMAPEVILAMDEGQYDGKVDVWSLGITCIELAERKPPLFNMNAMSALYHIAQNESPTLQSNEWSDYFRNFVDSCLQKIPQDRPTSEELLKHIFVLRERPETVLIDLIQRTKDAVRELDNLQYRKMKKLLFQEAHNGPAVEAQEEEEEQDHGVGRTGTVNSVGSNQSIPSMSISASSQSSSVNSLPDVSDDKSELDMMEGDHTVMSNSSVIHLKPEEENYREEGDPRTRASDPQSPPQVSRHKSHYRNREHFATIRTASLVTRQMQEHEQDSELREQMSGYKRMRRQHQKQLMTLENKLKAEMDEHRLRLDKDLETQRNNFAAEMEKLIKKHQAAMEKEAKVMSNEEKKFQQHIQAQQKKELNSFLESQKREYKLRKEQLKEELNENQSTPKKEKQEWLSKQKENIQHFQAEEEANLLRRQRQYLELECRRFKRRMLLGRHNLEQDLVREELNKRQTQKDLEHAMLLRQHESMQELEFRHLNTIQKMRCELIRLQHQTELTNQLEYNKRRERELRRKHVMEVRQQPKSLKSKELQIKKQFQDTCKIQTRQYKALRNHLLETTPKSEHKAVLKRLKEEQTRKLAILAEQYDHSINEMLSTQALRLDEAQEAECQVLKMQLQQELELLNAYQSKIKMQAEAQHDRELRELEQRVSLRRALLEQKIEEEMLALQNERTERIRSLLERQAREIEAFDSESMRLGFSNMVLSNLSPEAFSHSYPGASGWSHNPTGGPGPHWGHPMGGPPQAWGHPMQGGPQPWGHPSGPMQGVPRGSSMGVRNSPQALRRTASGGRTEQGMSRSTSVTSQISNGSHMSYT

Measured: % residual kinase activity

Chain of Fibroblast growth factor receptor 1 (Homo sapiens) (P11362 22-822 limits assumed): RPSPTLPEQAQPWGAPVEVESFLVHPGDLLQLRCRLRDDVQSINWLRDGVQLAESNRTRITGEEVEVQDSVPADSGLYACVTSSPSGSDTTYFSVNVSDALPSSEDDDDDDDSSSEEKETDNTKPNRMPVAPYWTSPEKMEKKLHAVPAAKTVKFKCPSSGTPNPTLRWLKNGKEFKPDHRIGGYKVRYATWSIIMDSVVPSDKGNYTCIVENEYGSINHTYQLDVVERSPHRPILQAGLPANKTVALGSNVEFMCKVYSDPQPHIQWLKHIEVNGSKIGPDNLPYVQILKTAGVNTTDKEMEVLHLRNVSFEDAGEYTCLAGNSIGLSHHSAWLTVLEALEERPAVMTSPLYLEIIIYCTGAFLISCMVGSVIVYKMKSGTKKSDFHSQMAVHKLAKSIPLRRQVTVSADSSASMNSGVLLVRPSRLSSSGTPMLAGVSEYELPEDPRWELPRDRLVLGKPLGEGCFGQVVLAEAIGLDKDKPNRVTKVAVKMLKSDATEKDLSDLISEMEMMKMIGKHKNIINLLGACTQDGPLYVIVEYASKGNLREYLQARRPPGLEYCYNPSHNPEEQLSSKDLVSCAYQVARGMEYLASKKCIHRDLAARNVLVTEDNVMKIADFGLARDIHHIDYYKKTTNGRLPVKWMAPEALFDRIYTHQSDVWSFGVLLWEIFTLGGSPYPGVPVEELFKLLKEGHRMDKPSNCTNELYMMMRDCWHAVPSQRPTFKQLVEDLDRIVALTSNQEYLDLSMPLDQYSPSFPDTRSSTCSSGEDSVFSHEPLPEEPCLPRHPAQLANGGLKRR
Chain of Interferon-induced, double-stranded RNA-activated protein kinase (Homo sapiens) (P19525 whole entry): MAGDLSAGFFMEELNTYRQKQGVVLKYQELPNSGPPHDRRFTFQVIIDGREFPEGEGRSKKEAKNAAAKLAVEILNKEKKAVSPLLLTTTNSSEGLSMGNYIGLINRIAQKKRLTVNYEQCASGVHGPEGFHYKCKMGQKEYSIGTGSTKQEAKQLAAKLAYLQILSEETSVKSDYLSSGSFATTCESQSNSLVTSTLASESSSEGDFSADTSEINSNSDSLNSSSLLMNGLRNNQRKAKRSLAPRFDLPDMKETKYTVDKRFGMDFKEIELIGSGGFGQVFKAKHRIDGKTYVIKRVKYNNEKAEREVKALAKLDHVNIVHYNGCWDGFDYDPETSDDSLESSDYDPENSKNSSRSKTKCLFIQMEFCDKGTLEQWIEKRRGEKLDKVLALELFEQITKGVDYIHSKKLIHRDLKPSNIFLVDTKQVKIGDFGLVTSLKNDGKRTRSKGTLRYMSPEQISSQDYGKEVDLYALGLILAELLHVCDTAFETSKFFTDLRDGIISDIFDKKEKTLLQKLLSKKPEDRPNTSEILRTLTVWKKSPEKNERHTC
Chain of Mitogen-activated protein kinase kinase kinase kinase 5 (Homo sapiens) (Q9Y4K4 whole entry, looked up): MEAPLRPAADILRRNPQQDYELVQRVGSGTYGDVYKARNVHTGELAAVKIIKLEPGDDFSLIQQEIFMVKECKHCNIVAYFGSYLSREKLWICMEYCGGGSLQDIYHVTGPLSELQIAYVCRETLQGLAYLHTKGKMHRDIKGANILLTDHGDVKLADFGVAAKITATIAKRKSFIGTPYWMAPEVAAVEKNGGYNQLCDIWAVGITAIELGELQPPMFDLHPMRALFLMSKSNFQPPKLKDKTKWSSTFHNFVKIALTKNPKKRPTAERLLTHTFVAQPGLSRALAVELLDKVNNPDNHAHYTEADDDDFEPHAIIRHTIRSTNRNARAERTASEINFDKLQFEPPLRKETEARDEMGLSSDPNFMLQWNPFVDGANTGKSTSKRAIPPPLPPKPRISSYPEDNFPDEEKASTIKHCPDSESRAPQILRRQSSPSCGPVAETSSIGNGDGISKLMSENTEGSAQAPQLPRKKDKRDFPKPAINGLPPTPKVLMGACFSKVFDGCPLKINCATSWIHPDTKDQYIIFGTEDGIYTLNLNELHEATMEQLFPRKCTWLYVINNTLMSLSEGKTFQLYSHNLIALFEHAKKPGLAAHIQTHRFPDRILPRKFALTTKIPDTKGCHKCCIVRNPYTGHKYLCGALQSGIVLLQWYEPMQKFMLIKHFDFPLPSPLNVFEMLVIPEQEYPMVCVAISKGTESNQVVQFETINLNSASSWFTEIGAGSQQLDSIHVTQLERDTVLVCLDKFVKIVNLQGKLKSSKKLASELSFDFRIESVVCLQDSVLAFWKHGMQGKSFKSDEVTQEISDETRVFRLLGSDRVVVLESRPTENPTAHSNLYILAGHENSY

CN1CCN(c2cnc3c(C4CCN(C(=O)c5ccc(OC(F)(F)F)cc5N)CC4)ncnc3c2)CC1 [BAY-885]
inactive: [1] 115% | [2] 99% | [3] 101% | [4] 125% | [5] 98% | [6] 100% | [7] 100%
